# From patent publication US9758503B1, “Coumarin-gossypol derivatives with antitumor activities and a method of preparing the same” (SHAANXI UNIVERSITY OF SCIENCE AND TECHNOLOGY, priority 2017, dated 2017)
# Like-named read-outs stand apart in the source and are kept apart here.
# Experiments:
# [1] = test system: human lung cancer cells (A-549); assay: MTT tumor cell proliferation inhibition test, A-549; format: cell-based; conditions: read-out: Half Inhibitory Concentration IC50 A549
# Experimental: (§1) The compounds of the present invention were subjected to tumor cell proliferation inhibition test, and conventional MTT method was used.
# (§2) Cell lines: human hepatoma cells (HepG2), human lung cancer cells (A-549), human gastric cancer cells (SGC-7901). The culture medium was DMEM+15% NBS+double antibody.
# (§3) Sample solution preparation: after dissolving with DMSO (Merck), PBS (−) was added to obtain 100 μmol/L solution or homogeneous suspension. The solution was diluted with PBS (−) in DMSO to a final concentration of 0.1, 1, 10, 20, 40, 60, 80, 100 μmol/L.
# (§4) Gossypol was used as control solution, prepared under the same condition.
# (§5) Cell culture: adherent growth Tumor cells were cultured in 1640 medium containing 10% inactivated neonatal bovine serum and penicillin, streptomycin (1 million U/L), placed in carbon dioxide incubator at 37° C., 5% CO2, and saturated humidity. Cells were treated serially passaged 2-3 times. The first culture was washed with PBS 2 times, and digested with trypsin. Fresh culture medium was added evenly, cells were adjusted to a appropriate concentration and transferred into a new culture flask. Cell in an exponential phase were chosen for the tests.
# (§6) MTT Assay for Cell Viability and IC50 Determination:
# (§7) Experimental Principle: Living cells mitochondria in the dehydrogenase can reduce yellow MTT to water-insoluble blue-violet product MT (MTT formazan), deposited in the cells. The amount of production is proportional to the number of living cells. […] DMSO can dissolve blue violet crystals, and the color depth is proportional to the amount contained, so the absorbance measured by the microplate reader can reflect the cell viability.
# (§8) Methods: The exponential phase cells were digested and counted and seeded in 96-well plates at a density of 2×10^4/mL at 100 μl per well. After 24 hours of incubation, the cells to be tested were treated with 0.1, 1, 10, 20, 40, 60, 80, 100 μmol/L of the compounds. Each experimental group had 5 wells in each concentration, and the culture medium containing 0.4% DMSO was used as control. After 48 hours, the supernatant was discarded, and 100 μl of MTT ((2-(4,5-dimethyl-2-thiazolyl)-3,5-diphenyl-2H-[…]) (1 mg/mL) was added to each well. After another 4 hours, the supernatant was discarded, and 100 μl of DMSO was added to each well. After mixing, the absorbance was measured at 570 nm using a microplate reader. An IC50 calculation software was used to determine the half inhibitory concentration (IC50).
# [2] = test system: three cell lines tested (HepG2, A-549, SGC-7901); assay: MTT tumor cell proliferation inhibition test, summary over the three cell lines; format: cell-based, human
# Experimental: as §1, §2, §3, §4
# as §5, with “Cell in an exponential phase were chosen for the tests.” left out
# as §7, with “the” for “the cells. The amount of production is proportional to the number of living”
# as §8, with “After 24 hours of incubation, the cells to be tested were treated with 0.1, 1, 10, 20, 40, 60, 80, 100 μmol/L of the compounds. Each experimental group had 5 wells in each concentration, and the culture medium containing 0.4% DMSO was used as control.” left out
# [3] = test system: human gastric cancer cells (SGC-7901); assay: MTT tumor cell proliferation inhibition test, SGC-7901; format: cell-based; conditions: read-out: Half Inhibitory Concentration IC50 SGC-7901
# Experimental: as §1, §2, §3, §4, §5, §6, §7, §8
# [4] = test system: human hepatoma cells (HepG2); assay: MTT tumor cell proliferation inhibition test, HepG2; format: cell-based; conditions: read-out: Half Inhibitory Concentration IC50 HepG2
# Experimental: as §1, §2, §3, §4, §5, §6, §7, §8
# [5] = A549 cells, MTT, 48 hours treatment
# [6] = SGC-7901 cells, MTT, 48 hours treatment
# [7] = HepG2 cells, MTT, 48 hours treatment
Structure (SMILES),"IC50 [1, 5] [µM]","IC50 [3, 6] [µM]","IC50 [4, 7] [µM]",antitumor activities (verbal summary) [2],"IC50 ([1]; A549, 48 h) [µM]","IC50 ([3]; SGC-7901, 48 h) [µM]","IC50 ([4]; HepG2, 48 h) [µM]"
"Cc1cc2c(c(O)c1-c1c(C)cc3c(C(C)C)c(O)c(O)c(C=O)c3c1O)/C(=C/c1c(O)c3ccc(O)cc3oc1=O)C(=O)C(O)=C2C(C)C [Compound A-3, (Z)-8′-((4,7-dihydroxy-2-oxo-2H-chromen-3-yl)methylene)-1,1′,6,6′,7-pentahydroxy-5,5′-diisopropyl-3,3′-dimethyl-7′-oxo-7′,8′-dihydro-[2,2′-binaphthalene]-8-carbaldehyde]",26.7 ± 1.12,30.7 ± 1.31,17.8 ± 0.95,good antitumor activities,–,–,–
Cc1cc2c(C(C)C)c(O)c(O)c(C=O)c2c(O)c1-c1c(C)cc2c(C(C)C)c(O)c(O)c(C=O)c2c1O [Gossypol],–,–,–,–,26.3 ± 1.89,43.6 ± 2.03,18.4 ± 0.71
"COc1cccc2c(O)c(/C=C3\C(=O)C(O)=C(C(C)C)c4cc(C)c(-c5c(C)cc6c(C(C)C)c(O)c(O)c(C=O)c6c5O)c(O)c43)c(=O)oc12 [Compound A-4, (Z)-1,1′,6,6′,7-pentahydroxy-8′-((4-hydroxy-8-methoxy-2-oxo-2H-chromen-3-yl)methylene)-5,5′-diisopropyl-3,3′-dimethyl-7′-oxo-7′,8′-dihydro-[2,2′-binaphthalene]-8-carbaldehyde]",43.4 ± 1.21,31.2 ± 1.33,26.5 ± 1.02,–,–,–,–
"Cc1cc2c(c(O)c1-c1c(C)cc3c(C(C)C)c(O)c(O)c(C=O)c3c1O)/C(=C/c1c(O)c3c(O)cc(O)cc3oc1=O)C(=O)C(O)=C2C(C)C [Compound A-5, (Z)-1,1′,6,6′,7-pentahydroxy-5,5′-diisopropyl-3,3′-dimethyl-7′-oxo-8′-((4,5,7-trihydroxy-2-oxo-2H-chromen-3-yl)methylene)-7′,8′-dihydro-[2,2′-binaphthalene]-8-carbaldehyde]",> 100,88.8 ± 3.02,> 100,–,–,–,–
"Cc1cc2c(c(O)c1-c1c(C)cc3c(C(C)C)c(O)c(O)c(C=O)c3c1O)/C(=C/c1c(O)c3ccccc3oc1=O)C(=O)C(O)=C2C(C)C [Compound A-1, (Z)-1,1′,6,6′,7-pentahydroxy-8′-((4-hydroxy-2-oxo-2H-chromen-3-yl)methylene)-5,5′-diisopropyl-3,3′-dimethyl-7′-oxo-7′,8′-dihydro-[2,2′-binaphthalene]-8-carbaldehyde]",17.1 ± 0.72,21.3 ± 1.34,10.7 ± 0.65,best antitumor activities,–,–,–
"Cc1cc2c(c(O)c1-c1c(C)cc3c(C(C)C)c(O)c(O)c(C=O)c3c1O)/C(=C/c1c(O)c3cc(Cl)ccc3oc1=O)C(=O)C(O)=C2C(C)C [Compound A-2, (Z)-8′-((6-chloro-4-hydroxy-2-oxo-2H-chromen-3-yl)methylene)-1,1′,6,6′,7-pentahydroxy-5,5′-diisopropyl-3,3′-dimethyl-7′-oxo-7′,8′-dihydro-[2,2′-binaphthalene]-8-carbaldehyde]",> 100,> 100,> 100,–,–,–,–
"Cc1cc(C)c2c(O)c(/C=C3\C(=O)C(O)=C(C(C)C)c4cc(C)c(-c5c(C)cc6c(C(C)C)c(O)c(O)c(C=O)c6c5O)c(O)c43)c(=O)oc2c1 [Compound A-6, (Z)-1,1′,6,6′,7-pentahydroxy-8′-((4-hydroxy-5,7-dimethyl-2-oxo-2H-chromen-3-yl)methylene)-5,5′-diisopropyl-3,3′-dimethyl-7′-oxo-7′,8′-dihydro-[2,2′-binaphthalene]-8-carbaldehyde]",> 100,32.6 ± 1.81,42.1 ± 1.04,–,–,–,–

# Continued, in another order:
"IC50 [1, 5] [µM]","IC50 [3, 6] [µM]","IC50 [4, 7] [µM]",Structure (SMILES),antitumor activities (verbal summary) [2],"IC50 ([1]; A549, 48 h) [µM]","IC50 ([3]; SGC-7901, 48 h) [µM]","IC50 ([4]; HepG2, 48 h) [µM]"
68.5 ± 2.44,> 100,> 100,"Cc1cc2c(c(O)c1-c1c(C)cc3c(c1O)/C(=C/c1c(O)c4cc(Cl)ccc4oc1=O)C(=O)C(O)=C3C(C)C)/C(=C/c1c(O)c3cc(Cl)ccc3oc1=O)C(=O)C(O)=C2C(C)C [Compound B-2, (8Z,8′Z)-8,8′-bis((6-chloro-4-hydroxy-2-oxo-2H-chromen-3-yl)methylene)-1,1′,6,6′-tetrahydroxy-5,5′-diisopropyl-3,3′-dimethyl-[2,2′-binaphthalene]-7,7′(8H,8′H)-dione]",–,–,–,–
28.6 ± 0.64,33.2 ± 1.01,16.7 ± 0.45,"Cc1cc2c(c(O)c1-c1c(C)cc3c(c1O)/C(=C/c1c(O)c4ccc(O)cc4oc1=O)C(=O)C(O)=C3C(C)C)/C(=C/c1c(O)c3ccc(O)cc3oc1=O)C(=O)C(O)=C2C(C)C [Compound B-3, (8Z,8′Z)-8,8′-bis((4,7-dihydroxy-2-oxo-2H-chromen-3-yl)methylene)-1,1′,6,6′-tetrahydroxy-5,5′-diisopropyl-3,3′-dimethyl-[2,2′-binaphthalene]-7,7′(8H,8′H)-dione]",–,–,–,–
> 100,> 100,58.6 ± 3.23,"Cc1cc(C)c2c(O)c(/C=C3\C(=O)C(O)=C(C(C)C)c4cc(C)c(-c5c(C)cc6c(c5O)/C(=C/c5c(O)c7c(C)cc(C)cc7oc5=O)C(=O)C(O)=C6C(C)C)c(O)c43)c(=O)oc2c1 [Compound B-6, (8Z,8′Z)-1,1′,6,6′-tetrahydroxy-8,8′-bis((4-hydroxy-5,7-dimethyl-2-oxo-2H-chromen-3-yl)methylene)-5,5′-diisopropyl-3,3′-dimethyl-[2,2′-binaphthalene]-7,7′(8H,8′H)-dione]",–,–,–,–
22.3 ± 0.9,26.9 ± 1.35,15.2 ± 0.34,"Cc1cc2c(c(O)c1-c1c(C)cc3c(c1O)/C(=C/c1c(O)c4ccccc4oc1=O)C(=O)C(O)=C3C(C)C)/C(=C/c1c(O)c3ccccc3oc1=O)C(=O)C(O)=C2C(C)C [Compound B-1, (8Z,8′Z)-1,1′,6,6′-tetrahydroxy-8,8′-bis((4-hydroxy-2-oxo-2H-chromen-3-yl)methylene)-5,5′-diisopropyl-3,3′-dimethyl-[2,2′-binaphthalene]-7,7′(8H,8′H)-dione]",good antitumor activities,–,–,–
38.4 ± 0.79,40 ± 1.43,22.4 ± 0.58,"COc1cccc2c(O)c(/C=C3\C(=O)C(O)=C(C(C)C)c4cc(C)c(-c5c(C)cc6c(c5O)/C(=C/c5c(O)c7cccc(OC)c7oc5=O)C(=O)C(O)=C6C(C)C)c(O)c43)c(=O)oc12 [Compound B-4, (8Z,8′Z)-1,1′,6,6′-tetrahydroxy-8,8′-bis((4-hydroxy-8-methoxy-2-oxo-2H-chromen-3-yl)methylene)-5,5′-diisopropyl-3,3′-dimethyl-[2,2′-binaphthalene]-7,7′(8H,8′H)-dione]",–,–,–,–
> 100,54.3 ± 2.85,> 100,"Cc1cc2c(c(O)c1-c1c(C)cc3c(c1O)/C(=C/c1c(O)c4c(O)cc(O)cc4oc1=O)C(=O)C(O)=C3C(C)C)/C(=C/c1c(O)c3c(O)cc(O)cc3oc1=O)C(=O)C(O)=C2C(C)C [Compound B-5, (8Z,8′Z)-1,1′,6,6′-tetrahydroxy-5,5′-diisopropyl-3,3′-dimethyl-8,8′-bis((4,5,7-trihydroxy-2-oxo-2H-chromen-3-yl)methylene)-[2,2′-binaphthalene]-7,7′(8H,8′H)-dione]",–,–,–,–
